According to patent US5476782A, “DNA encoding a human 5-HT1E receptor and uses thereof” (Synaptic Pharmaceutical Corporation, priority 1995, dated 1995):
Like-named read-outs stand apart in the source and are kept apart here.

What was measured:
human 5-HT1E receptor [1] = biological target: T1, human 5-HT1E receptor (Homo sapiens, UniProt P28566); test: [3H]5-HT displacement binding, membranes of Ltk- cells transfected with cloned 5-HT1E receptor; parameters: The entire coding region of clone hp75d was cloned into the eukaryotic expression vector pcEXV-3; expressed in transfected cells; host or cells: Ltk- mouse fibroblast cells (line 5-HT1E-7, ATCC CRL 10913, plasmid pcEXV-hp75d); conditions: for affinity (in words): displacement of [3H]5-HT specific binding; for decrease of affinity relative to serotonin: substitution or removal of the 5-hydroxy group
T1 sequence (P28566 whole entry): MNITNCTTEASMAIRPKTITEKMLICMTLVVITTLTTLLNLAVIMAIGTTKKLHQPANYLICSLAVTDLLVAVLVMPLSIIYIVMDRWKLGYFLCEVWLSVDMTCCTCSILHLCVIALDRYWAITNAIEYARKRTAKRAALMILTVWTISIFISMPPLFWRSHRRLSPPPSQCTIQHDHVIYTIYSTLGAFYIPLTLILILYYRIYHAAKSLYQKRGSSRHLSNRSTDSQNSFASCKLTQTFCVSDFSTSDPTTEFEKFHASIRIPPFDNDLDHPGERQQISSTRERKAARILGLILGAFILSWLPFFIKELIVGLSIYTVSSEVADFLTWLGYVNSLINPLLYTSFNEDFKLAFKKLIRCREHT
Method: Membranes were prepared from transfected Ltk^- cells which were grown to 100% confluency. The cells were washed twice with phosphate-buffered saline, scraped from the culture dishes into 5 ml of ice-cold phosphate-buffered saline, and centrifuged at 200×g for 5 min at 4° C. The pellet was resuspended in 2.5 ml of ice-cold Tris buffer (20 mM Tris -HCl, pH 7.4 at 23° C., 5 mM EDTA) and homogenized by a Wheaton tissue grinder. The lysate was subsequently centrifuged at 200×g for 5 min at 4° C. to pellet large fragments which were discarded. The supernatant was collected and centrifuged at 40,000× g for 20 min at 4° C. The pellet resulting from this centrifugation was washed once in ice-cold Tris buffer and finally resuspended in a final buffer containing 50 mM Tris-HCl and 0.5 mM EDTA, pH 7.4 at 23° C. Membrane preparations were kept on ice and utilized within two hours for the radioligand binding assays.
The binding profile of drugs in competition experiments was accomplished using 10-12 concentrations of compound. Incubation times were 30 min for both saturation and displacement studies based upon initial investigations which determined equilibrium binding conditions. […] Binding was initiated by the addition of 50 μl membrane homogenates (10-20 μg). The reaction was terminated by rapid filtration through presoaked (0.5% polyethyleneimine) filters using 48R Cell Brandel Harvester (Gaithersburg, Md.). Subsequently, filters were washed for 5 seconds with ice cold buffer (50 mM Tris HCL, pH 7.4 at 4° C.), dried and placed into vials containing 2.5 ml of Readi-Safe (Beckman, Fullerton, Calif.) and radioactivity was measured using a Beckman LS 5000TA liquid scintillation counter. […] Binding data was analyzed by computer-assisted nonlinear regression analysis (Accufit and Accucomp, Lundon Software, Chagrin Falls, Ohio). […] All experiments were performed in triplicate.

5-HT1E binding site = conditions: native site, human cortical tissue; cited from earlier work
human 5-HT1E receptor [2] = biological target: T1, human 5-HT1E receptor; conditions: forskolin-stimulated cAMP
Method: Transfected Y1 cells (expression level=688 fmol/mg of protein) were incubated in DMEM, 5 mM theophylline, 10 mM Hepes (4-[2-Hydroxyethyl]-1-piperazineethanesulfonic acid), 10 μM pargyline, for 20 minutes at 37° C., 5% CO2. […] Subsequently, the cells were incubated for an additional 10 minutes at 37° C., 5% CO2. The media was aspirated and the reaction terminated by the addition of 100 mM HCl. The plates were stored at 4° C. for 15 minutes and centrifuged for 5 minutes (500×g at 4° C.) to pellet cellular debris. Aliquots of the supernatant fraction were then stored at -20° C. prior to assessment of cAMP formation by radioimmunoassay (cAMP Radioimmunoassay kit, Advanced Magnetics, Cambridge, Mass.).

human 5-HT1E receptor [3] = test: Inhibition of [3H]5-HT specific binding by Gpp(NH)p (G-protein coupling); conditions: inhibition of specific binding of [3H]5-HT
[4] = displacement of 4.5-5.5 nM [3H]5-HT, 37° C., 30 min, Table 1, read-out: Ki

SMILES	Ki (human 5-HT1E receptor [1]; [4]) [nM]	affinity (in words) (human 5-HT1E receptor [1])	also measured
COC(=O)[C@@H]1[C@H]2C[C@H]3c4[nH]c5ccccc5c4CCN3C[C@@H]2CC[C@@H]1O [Yohimbine]	1270 ± 233	–	–
NCCc1c[nH]c2ccc(C(N)=O)cc12 [5-CT, 5-carboxyamidotryptamine]	7880 ± 284	low affinity	affinity (in words) (5-HT1E binding site): low affinity; decrease of affinity relative to serotonin (human 5-HT1E receptor [1]): 300 fold
CN1C[C@H](CO)C=C2c3cccc4[nH]cc(c34)C[C@H]21 [Lysergol]	42.8 ± 5.3	–	–
CC[C@@H](CO)NC(=O)[C@@H]1C=C2c3cccc4c3c(cn4C)C[C@H]2N(C)C1 [Methysergide]	228 ± 16	–	–
CSc1ccc2c(c1)C(N1CCN(C)CC1)Cc1ccccc1S2 (centres unmarked) [Methiothepin]	194 ± 4	–	Ki (human 5-HT1E receptor [1]; read-out: Ki values): 194 nM
CN1C[C@H](C(=O)N[C@]2(C)O[C@@]3(O)[C@@H]4CCCN4C(=O)[C@H](Cc4ccccc4)N3C2=O)C=C2c3cccc4[nH]cc(c34)C[C@H]21 [Ergotamine]	599 ± 39	–	affinity (in words) (5-HT1E binding site): low affinity
O=C(c1ccc(F)cc1)C1CCN(CCn2c(=O)[nH]c3ccccc3c2=O)CC1 [Ketanserin]	–	very poor affinity	–
COc1cc(N)c(Cl)cc1C(=O)NC1CN2CCC1CC2 (centres unmarked) [Zacopride]	–	very poor affinity	–
NCCc1c[nH]c2ccc(O)cc12 [5-HT, 5-hydroxytryptamine]	–	highest affinity	maximum inhibition of cAMP production (human 5-HT1E receptor [2]): 32%
c1ccc2c(N3CCNCC3)cccc2c1 [1-Napthylpiperazine]	207 ± 69	–	Ki (human 5-HT1E receptor [1]; read-out: Ki values): 207 nM
NCCc1c[nH]c2ccccc12 [Tryptamine]	2560 ± 827	–	decrease of affinity relative to serotonin (human 5-HT1E receptor [1]): 300 fold
CCCN(CCC)CCc1c[nH]c2ccc(C(N)=O)cc12 [DP-5-CT]	–	–	Ki (human 5-HT1E receptor [1]): > 10000 nM
COc1ccc2[nH]cc(CCN)c2c1 [5-Methoxytryptamine]	3150 ± 1040	–	decrease of affinity relative to serotonin (human 5-HT1E receptor [1]): 300 fold
CC[C@@H](CO)NC(=O)[C@@H]1C=C2c3cccc4[nH]cc(c34)C[C@H]2N(C)C1 [Methylergonovine]	89.4 ± 4.2	–	–
COC(=O)[C@H]1[C@H]2C[C@H]3c4[nH]c5ccccc5c4CCN3C[C@H]2CC[C@@H]1O [Rauwolscine]	–	–	Ki (human 5-HT1E receptor [1]): 3430 ± 102 nM
CC(C)NCC(O)COc1cccc2[nH]ccc12 (centres unmarked) [Pindolol]	–	very poor affinity	–
CCCN(CCC)C1CCc2cccc(O)c2C1 (centres unmarked) [8-OH-DPAT]	3330 ± 310	very poor affinity	–
C[C@@H](CO)NC(=O)[C@@H]1C=C2c3cccc4[nH]cc(c34)C[C@H]2N(C)C1 [Ergonovine]	–	–	Ki (human 5-HT1E receptor [1]): 87.7 ± 7.6 nM
COc1cc(CC(C)N)c(OC)cc1I (centres unmarked) [DOI]	2970 ± 592	very poor affinity	–
Nc1nc2c(ncn2[C@@H]2O[C@H](COP(=O)(O)OP(=O)(O)NP(=O)(O)O)[C@@H](O)[C@H]2O)c(=O)[nH]1 [Gpp(NH)p]	–	–	IC50 (human 5-HT1E receptor [3]): 1880 ± 556 nM; Imax (human 5-HT1E receptor [3]): 26.4±5.6%
Nc1ccc(CCN2CCN(c3cccc(C(F)(F)F)c3)CC2)cc1 [LY-165163 (PAPP)]	–	–	Ki (human 5-HT1E receptor [1]): > 10000 nM
Cc1cc(C(C)(C)C)c(O)c(C)c1CC1=NCCN1 [Oxymetazoline]	419 ± 49	–	–
FC(F)(F)c1cccc(N2CCNCC2)c1 [TFMPP]	6290 ± 259	–	–
Cc1[nH]c2ccc(O)cc2c1CCN [2-Methyl-5-HT]	817 ± 203	–	–
O=C(CCCN1CCC2(CC1)C(=O)NCN2c1ccccc1)c1ccc(F)cc1 [Spiperone]	5050 ± 689	very poor affinity	–
